Series [1] has as its system Mabs 19977R (rough morphotype). Kind of series: Growth inhibition screen with unpurified peptides in M7H9, MHB, CAMHB. Format: cell-based, Mycobacterium abscessus. To be noted: unpurified peptide 100 μM. Here is the method:
(§1) Mabs ATCC 19977 smooth morphotype (Mabs 19977S) cells were cultured at 37° C. in Middlebrook 7H9 supplemented with albumin, dextrose, and catalase (ADC) (10%), Tween 80 (0.05%), and glycerol (0.2%) (herein referred to as M7H9). Mabs 19977S was exposed to clarithromycin (8 μg/ml) in M7H9 for 24 h at 37° C., subjected to serial dilutions and plated on Middlebrook 7H10 agar supplemented with oleic acid, albumin, dextrose, and catalase (OADC) (herein referred to as M7H10). After 5 d incubation at 37° C., a single, isolated colony displaying a rough morphotype (Mabs 19977R) was detected, grown, and stored at −70° C. Mabs 19977S and Mabs 19977R were grown for approximately 32 h at 37° C., diluted 1:100 in fresh, pre-warmed M7H9, and grown for an additional 14 h until the cultures reached early-to-mid-logarithmic phase (OD600=0.2-0.3).
(§2) Bacteria grown in M7H9, MHB, and cation-adjusted MHB (CAMHB) were used to identify unpurified peptides with inhibitory activity against Mabs 19977S and Mabs 19977R. Peptides (50-65% purity) were synthesized by Sigma Aldrich (St. Louis, Mo.) PEPscreen Custom Peptide Libraries. Mabs ATCC 19977S and ATCC 19977R mid-logarithmic phase cultures were centrifuged (3,715×g) for 2 min, washed in pre-warmed M7H9, re-suspended in M7H9, MHB, or CAMHB, and diluted to 10^6 CFU/ml. In a 96-well polystyrene microtiter plate, media (M7H9, MHB, or CAMHB), unpurified peptides (100 μM or 10 μM), ethylenediaminetetraacetic acid (EDTA) (100 μM), and cells (Mabs 19977S or Mabs 19977R) (10^5 CFU/ml) were added. EDTA was added to determine if metal ion chelation would alter peptide activity. Clarithromycin (4 μg/ml) was used as an antibiotic positive control. The 96-well microtiter plates were statically incubated at 37° C. for 72 h. The OD600 was measured every 24 h using a SpectraMax M2 microplate reader (Molecular Devices, San Jose, Calif., USA). Peptides that reduced Mabs growth by ≥50%, when compared to the growth control OD600, were considered active.
(§3) In culture medium with cation supplementation (CAMHB), ASU2060 (100 μM) had activity against both morphotypes when EDTA was added (FIG. 2F). […] There were no peptides with inhibitory activity in CAMHB without EDTA (FIG. 2E).

Series [2] has as its system Mabs 19977S (Mabs ATCC 19977 smooth morphotype). Described as above. It counts as cell-based, Mycobacterium abscessus. To be noted: unpurified peptide 100 μM. On the procedure:
as §1, §2, §3

The test system of another series is Mabs 19977S. To be noted: purified peptide, MHB with EDTA (100 μM), 96 h, 37° C. On the procedure: (§4) In order to determine effects on Mabs viability, microdilution antimicrobial assays were performed in MHB.
In the next series the test system is Mabs 19977R. To be noted: 96 h. Here is the method:
as §4

For series [3], the system named is human red blood cell (hRBC). Kind of series: Human red blood cell (hRBC) hemolytic assay. Format: cell-based. On the procedure: To determine if the purified, Mabs inhibitory peptides were toxic, human red blood cell (hRBC) hemolytic assays were performed. Peptides (at 1×, 2×, and 4× their respective Mabs 19977S MICs) were added to 4% hRBC in saline and statically incubated for 1 h or 18 h at 37° C. […] Following incubation, the peptide-hRBC mixtures and the 1% Triton X-100 positive controls were centrifuged for 1 min at 1,000×g to pellet the intact hRBC. The supernatant for each experimental mixture and control was removed, and OD475 measurements were recorded to determine the percentage of lysed hRBC. The percentage of hemolytic activity was normalized by comparing the supernatant absorbance of all conditions tested to an equivalent number of hRBC lysed with 1% Triton X-100 (Eq. 1) (50).

A further series deals with E. coli ATCC 25922. Format: cell-based, Escherichia coli. To be noted: ATCC 25922, 22 h. On the procedure: Samples were serially diluted in MHB to ˜10^5 CFU/ml and added to a 96-well polystyrene plate prepared with ASU2060 (128-4 μM). After incubation for 22 h at 37° C., the OD600 was measured using a SpectraMax M2 microplate reader (Molecular Devices, San Jose, Calif., USA). Values were normalized to the medium blank (MHB) and E. coli (ATCC 25922) treated with nitrofurantoin at 64 μM.

The subject of series [4] is E. coli clinical isolates. From the text: (approved by Mayo Clinic Biospecimen Subcommittee BIO00015462).
[5] abbreviates: purified peptide, MHB with EDTA (100 μM), 37° C.

Results on seven compounds are retold here after patent US11752195B2, “Compositions and methods of use of synthetic peptides with Mycobacterium abscessus inhibitory activity” (priority 2021, dated 2023).

≈ marks a conversion by molar mass, not a printed value. Read-outs that look alike come from different tables or passages of the source. Peptide text beside a SMILES is read from it.

For `CC(C)[C@H](NC(=O)[C@@H](CCCCN)NC(=O)[C@H](C)NC(=O)[C@@H](C)NC(=O)[C@@H](CCCCN)NC(=O)[C@H](CO)NC(=O)[C@@H](CCCNC(=N)N)NC(=O)CNC(=O)[C@H](CC(N)=O)NC(=O)[C@H](Cc1ccccc1)NC(=O)[C@@H](N)CCC(N)=O)C(=O)N[C@@H](CC(N)=O)C(=O)N[C@@H](Cc1ccccc1)C(=O)N[C@H](Cc1c[nH]c2ccccc12)C(=O)N[C@H](CCCNC(=N)N)C(=O)N[C@H](CCCCN)C(=O)N[C@H](C)C(=O)O` [ASU2001, QFNGrSkaAkVNFwrka] (HELM PEPTIDE1{Q.F.N.G.[dR].S.[dK].[dA].A.[dK].V.N.F.[dW].[dR].[dK].[dA]}$$$$V2.0), the “activity (growth reduced by ≥50% vs growth control OD600)” value is “exhibited activity” in series [1] (M7H9, with EDTA (100 μM)); “exhibited activity” in series [1] (M7H9, without EDTA); “maintained activity” in series [1] (MHB, with EDTA); “exhibited activity” in series [2] (M7H9, with EDTA (100 μM)); “maintained activity” in series [2] (MHB, with EDTA).

For the compound `CC(C)C[C@@H](NC(=O)[C@@H](C)NC(=O)[C@@H](CCCCN)NC(=O)[C@@H](CCCNC(=N)N)NC(=O)[C@H](Cc1ccccc1)NC(=O)[C@H](CCC(N)=O)NC(=O)[C@H](CC(N)=O)NC(=O)[C@@H](NC(=O)[C@@H](CCCCN)NC(=O)[C@@H](CCCNC(=N)N)NC(=O)[C@H](C)NC(=O)[C@@H](CCCCN)NC(=O)[C@H](CO)NC(=O)[C@@H](CC(C)C)NC(=O)CNC(=O)[C@H](Cc1ccc(O)cc1)NC(=O)[C@H](N)CCCNC(=N)N)C(C)C)C(N)=O` [ASU2009, rYGlSkArkVNQFrkal] (HELM PEPTIDE1{[dR].Y.G.[dL].S.[dK].A.[dR].[dK].V.N.Q.F.[dR].[dK].[dA].[dL].[am]}$$$$V2.0), the “activity (growth reduced by ≥50% vs growth control OD600)” value is “exhibited activity” in series [1] (M7H9, with EDTA (100 μM)); “maintained activity” in series [1] (MHB, with EDTA); “exhibited activity” in series [2] (M7H9, with EDTA (100 μM)); “maintained activity” in series [2] (MHB, with EDTA).

The MIC is the smallest concentration in the dilution series that meets the test's criterion for growth inhibition. Read a high MIC as weaker potency. A word on the IC50: it is the concentration that inhibits the measured activity by half. A low value points to inhibition by little substance. In the series with Mabs 19977S, `CC(C)C[C@@H](NC(=O)[C@@H](C)NC(=O)[C@H](CO)NC(=O)[C@@H](CCCCN)NC(=O)[C@@H](CCCNC(=N)N)NC(=O)[C@@H](CCCNC(=N)N)NC(=O)[C@H](Cc1ccccc1)NC(=O)[C@@H](CC(C)C)NC(=O)[C@H](CC(N)=O)NC(=O)[C@H](Cc1c[nH]cn1)NC(=O)[C@@H]1CCCN1C(=O)[C@H](C)NC(=O)[C@H](CO)NC(=O)[C@@H]1CCCN1C(=O)CNC(=O)[C@@H](NC(=O)[C@H](N)CCCNC(=N)N)C(C)C)C(N)=O` [ASU2019] (HELM PEPTIDE1{[dR].V.G.P.S.A.P.H.N.[dL].F.[dR].[dR].[dK].S.[dA].[dL].[am]}$$$$V2.0; N-terminus and C-terminus assumed) returned an MIC of 256 µM (≈ 488 µg/mL). The compound also had an IC50 in the series on Mabs 19977R of 76 to 82 µM. In series [3], the “relative hRBC toxicity among the six peptides” value is “the most toxicity”.

In the case of `CC(C)C[C@@H](NC(=O)CNC(=O)[C@@H](Cc1c[nH]c2ccccc12)NC(=O)[C@@H](CCCNC(=N)N)NC(=O)[C@@H](N)CCC(N)=O)C(=O)N[C@@H](CO)C(=O)N[C@H](CC(C)C)C(=O)N[C@@H](C)C(=O)N1CCC[C@H]1C(=O)N[C@@H](Cc1ccc(O)cc1)C(=O)N[C@H](CCCCN)C(=O)N[C@@H](CC(N)=O)C(=O)N[C@@H](Cc1ccccc1)C(=O)N[C@H](CCCNC(=N)N)C(=O)N[C@H](CCCNC(=N)N)C(=O)N[C@H](CC(C)C)C(=O)N[C@@H](CO)C(N)=O` [ASU2056, QrwGlSlAPYkNFrrlS] (HELM PEPTIDE1{Q.[dR].[dW].G.[dL].S.[dL].A.P.Y.[dK].N.F.[dR].[dR].[dL].S.[am]}$$$$V2.0; N-terminus and C-terminus assumed), the MIC with Mabs 19977S stood at 32 µM (≈ 66.9 µg/mL). The compound further returned an IC50 in the series on Mabs 19977R (setting [5]) of 45 µM. Also, the “relative hRBC toxicity among the six peptides” value in series [3] is “the least toxicity”.

With `CC(C)C[C@@H](NC(=O)[C@@H](C)NC(=O)CNC(=O)[C@@H](CC(C)C)NC(=O)[C@@H](CCCCN)NC(=O)[C@@H](CCCNC(=N)N)NC(=O)[C@@H](CCCNC(=N)N)NC(=O)[C@H](CC(N)=O)NC(=O)[C@H](Cc1ccc(O)cc1)NC(=O)[C@@H](CCCNC(=N)N)NC(=O)[C@H](C)NC(=O)[C@H](CO)NC(=O)[C@@H](CCCNC(=N)N)NC(=O)CNC(=O)[C@@H](N)Cc1ccc(O)cc1)C(=O)N[C@@H](CO)C(=O)NCC(=O)O` [ASU2059, YGrSArYNrrklGalSG] (HELM PEPTIDE1{Y.G.[dR].S.A.[dR].Y.N.[dR].[dR].[dK].[dL].G.[dA].[dL].S.G}$$$$V2.0), the “activity (growth reduced by ≥50% vs growth control OD600)” value in series [1] (M7H9, with EDTA (100 μM)) is reported as “exhibited activity”; in series [1] (MHB, with EDTA), “maintained activity”; in series [2] (M7H9, with EDTA (100 μM)), “exhibited activity”; in series [2] (MHB, with EDTA), “maintained activity”.

Consider `CC(C)C[C@@H](NC(=O)CNC(=O)[C@H](CO)NC(=O)[C@@H](CCCCN)NC(=O)[C@@H](CCCNC(=N)N)NC(=O)[C@@H](Cc1c[nH]c2ccccc12)NC(=O)[C@@H](CCCNC(=N)N)NC(=O)[C@H](Cc1ccccc1)NC(=O)[C@H](CC(N)=O)NC(=O)[C@H](Cc1ccc(O)cc1)NC(=O)[C@@H](CCCNC(=N)N)NC(=O)[C@H](C)NC(=O)[C@H](CO)NC(=O)[C@@H](Cc1c[nH]c2ccccc12)NC(=O)[C@@H](CCCNC(=N)N)NC(=O)CNC(=O)[C@@H](N)C(C)C)C(N)=O` [ASU2060, VGrwSArYNFrwrkSGl] (HELM PEPTIDE1{V.G.[dR].[dW].S.A.[dR].Y.N.F.[dR].[dW].[dR].[dK].S.G.[dL].[am]}$$$$V2.0; N-terminus and C-terminus assumed), for which the MIC against E. coli ATCC 25922 was 4 µM (≈ 8.55 µg/mL); in the series with Mabs 19977S, 8 µM (≈ 17.1 µg/mL). In the series on Mabs 19977R (setting [5]), inhibition was half-maximal at 13 µM (IC50). Further, the “ASU2060 MIC” value in series [4] (E. coli clinical isolate 23), in series [4] (E. coli clinical isolate 36), in series [4] (E. coli clinical isolate 45), in series [4] (E. coli clinical isolate 47), in series [4] (E. coli clinical isolate 97) and in series [4] (E. coli clinical isolate 98) was 8 µM each time.

Take Triton X-100 [reference compound]: the “hRBC lysis by positive control” value in series [3] (Triton X-100 1%, 4% hRBC) is “complete hRBC lysis”.
